According to US20070155841A1, “Preventive agent for carcinogenesis of liver cancer containing quinone-based compound as active ingredient” (Eisai Co., Ltd., priority 2004, published 2007):

Columns and labels:
tumor cells = settings: Non-Patent Literature 5; cited from earlier work
[1] = tested on: liver cancer (hepatocellular carcinoma) in female virus cirrhosis patients; experiment: Randomized clinical trial with 7-year follow-up: development of liver cancer in virus cirrhosis patients; format: in vivo, human; settings: for Adjusted odds ratio for development of HCC (treatment group to control group): multivariate analysis adjusted for age, ALT, albumin, total bilirubin, platelet count, AFP, history of IFN-α, 95% CI 0.016-0.992, P 0.0491; for Crude odds ratio for development of HCC (treatment group to control group): univariate analysis, 95% CI 0.042-0.913, P 0.038
Protocol: A primary test was conducted targeting 50 female virus cirrhosis patients.
The diagnosis of cirrhosis was based on histological examination of liver specimens obtained by laparoscopy or needle biopsy performed under ultrasonic guidance.
Half were randomly assigned to receive 45 mg/day of vitamin K2 (Glakay;
Eisai Co., Tokyo, Japan) p.o., and half were assigned to the control group. Randomization was performed by placing the treatment assignments in sealed envelopes.
At the end of the first study, 21 patients in the treatment group and 19 patients in the control group agreed to participate in a longer trial. These patients were infected with the hepatitis C virus except for one patient in each group that had hepatitis B.
The clinical trial was conducted in accordance with the Helsinki Declaration and was approved by our ethics committee.
Statistical analysis was carried out with SAS software (version 8.12). The χ2 test was used to assess the homogeneity of groups. Cumulative incidences were plotted by the Kaplan-Meier method, and statistical significance of differences was analyzed by the log-rank test. Cox's regression analysis was used for univariate and multivariate analysis. In both studies, the two groups were similar with respect to age, the Child-Pugh stage, and the other clinical findings (See Table 1).

[2] = tested on: liver cancer which has been treated; settings: Non-Patent Literature 6 and 7, cited from earlier work
leukemia cells = settings: in vitro, Patent Literature 1; cited from earlier work
[3] = cited from earlier work

Structure (SMILES)	induction of apoptosis (tumor cells)	Adjusted odds ratio for development of HCC (treatment group to control group) ([1]; listed as VK2)	Adjusted odds ratio for development of HCC (treatment group to control group) ([1]; listed as vitamin K2)	cumulative incidence percentage of liver cancer patients versus control group ([1]; treatment group, 45 mg/day p.o., 7-year follow-up, Kaplan-Meier (FIG. 1))	patients who developed liver cancer ([1]; treatment group, 45 mg/day p.o., 7-year follow-up, control group 9 of 19)	Crude odds ratio for development of HCC (treatment group to control group) ([1]; listed as VK2)	Crude odds ratio for development of HCC (treatment group to control group) ([1]; listed as vitamin K2)	recurrence of treated liver cancer ([2]; patients who already had cancer)	survival percentage ([2]; patients with treated liver cancer)	differentiation induction activity (leukemia cells)	solubility in water [3]
CC(C)=CCC/C(C)=C/CC/C(C)=C/CC/C(C)=C/CO [geranylgeraniol]	potent inducer of apoptosis in tumor cells	–	–	–	–	–	–	–	–	–	–
CC(C)=CCC/C(C)=C/CC/C(C)=C/CC/C(C)=C/CC1=C(C)C(=O)c2ccccc2C1=O [menatetrenone, 2-methyl-3-tetraprenyl-1,4-naphthoquinone]	–	0.126	0.126 (0.016 to 0.992)	much smaller than that in the control group	2 of 21	0.195	0.195 (from 0.042 to 0.913)	suppresses recurrence of liver cancer	heightens the survival percentage	differentiation induction activity in leukemia cells	nearly insoluble in water
